Values joined by “and” are separate entries in the source; they are usually repeats but may differ in a detail not shown here. Equal values may be shown once.

The results in this text go back to patent KR20210056931A, “피리메타민을 유효성분으로 포함하는 면역 관련 질환의 치료 또는 예방용 약학 조성물” (priority 2019, dated 2021).

In data set [1] the test system is TNF-α. The experiment in a line: TNF-α expression inhibition in Raw264.7, comparison with DMARDs, Experiment 2-1. It counts as cell-based. The following applies: 6 h pretreatment, LPS 10 ng/mL, MTX 344 nM, HCQ 610 nM, PYR 50 ng/mL, CsA 391 ng/mL, AZA 25 ng/mL, SFZ 750 ng/mL.
The subject of data set [2] is rheumatoid arthritis model, DBA-1J Mice [류마티스 관절염 모델]. The experiment in a line: Arthritis score in rheumatoid arthritis animal model, Experiment 5. It counts as in vivo, mouse. The following applies: G3: MTX 2 mg/kg/2day PO.
Data set [3] has the same test system. Nature of the data set: Arthritis score in rheumatoid arthritis animal model, dose regimen study, Experiment 6. Format: in vivo, mouse. The conditions noted are these: HCQ 80 mg/kg/day QD PO, PG 25 mg/kg/day QD PO; for Arthritis score: MTX 2 mg/kg/2day PO, TFC 10 mg/kg/day BID PO (G3-G6); for Arthritis score (in words): TFC 10 mg/kg/day BID PO.
For data set [4] the test system is unchanged. Nature of the data set: Paw edema in rheumatoid arthritis animal model, Experiment 5. The conditions noted are these: G3: MTX 2 mg/kg/2day PO. Format: in vivo, mouse.
A short description of data set [5]: Hematological examination, Experiment 6-4. It counts as in vivo, mouse.
In data set [6] the test system is TNF-α. The experiment in a line: Plasma TNF-α (ELISA), Experiment 6-5. The following applies: for Plasma TNF-α: Day 14, MTX 2 mg/kg/2day PO, HCQ 80 mg/kg/day QD PO, PG 25 mg/kg/day QD PO, TFC 10 mg/kg/day BID PO (G3-G6); for Plasma TNF-α (in words): HCQ, PG, TFC groups. It counts as in vivo, mouse. In general terms: In an ELISA, binding on a coated surface is turned into a signal by an enzyme label.

In data set [7] the test system is rheumatoid arthritis model, DBA-1J Mice [류마티스 관절염 모델]. The experiment in a line: Paw edema in rheumatoid arthritis animal model, dose regimen study, Experiment 6. Format: in vivo, mouse. The following applies: Day 14, MTX 2 mg/kg/2day PO, HCQ 80 mg/kg/day QD PO, PG 25 mg/kg/day QD PO, TFC 10 mg/kg/day BID PO (G3-G6).
For data set [8] the test system is unchanged. The experiment in a line: Histopathological examination in rheumatoid arthritis animal model, Experiment 5. Format: in vivo, mouse. The conditions noted are these: Day 14; G3: MTX 2 mg/kg/2day PO.
The test system is the same in data set [9]. Nature of the data set: Histopathological examination in rheumatoid arthritis animal model, dose regimen study, Experiment 6. It counts as in vivo, mouse. The following applies: Day 14; MTX 2 mg/kg/2day PO, HCQ 80 mg/kg/day QD PO, PG 25 mg/kg/day QD PO, TFC 10 mg/kg/day BID PO (G3-G6).
For data set [10], the system named is TNF-α. The experiment in a line: TNF-α expression inhibition in Raw264.7, comparison with tofacitinib, Experiment 2-2. It counts as cell-based. The following applies: 6 h pretreatment, LPS 10 ng/mL 16 h.
In data set [11] the test system is TNF-α. The experiment in a line: TNF-α expression inhibition in Raw264.7, comparison with hydroxychloroquine and proguanil, Experiment 2-3. It counts as cell-based.
The mark [12] stands for this setting: Day 14, G3: MTX 2 mpk qd PO, G12: Py 15 mpk qd PO.

As to `Cn1cnc([N+](=O)[O-])c1Sc1ncnc2nc[nH]c12` [AZA, Azathioprine], the TNF-α expression was found to be 405.0 pg/mL in the data set with TNF-α [1] (2hr) and 3539.9 pg/mL in the data set with TNF-α [1] (24hr).

Regarding `O=C(O)c1cc(/N=N/c2ccc(S(=O)(=O)Nc3ccccn3)cc2)ccc1O` [SFZ, Sulfasalazine], the TNF-α expression in the data set on TNF-α [1] (2hr) is reported as 280.7 pg/mL; with TNF-α [1] (24hr), 3578.2 pg/mL.

In turn, `CN(Cc1cnc2nc(N)nc(N)c2n1)c1ccc(C(=O)N[C@@H](CCC(=O)O)C(=O)O)cc1` [메토트렉세이트, Methotrexate] returned an Arthritis score in data set [2] (Day 0) of 2.3±1.6 Total score. In addition, the Arthritis score in data set [2] (Day 2) worked out at 2.9±1.8 Total score. This compound also showed an Arthritis score in [2] (Day 4) of 4.6±2.9 Total score. In addition, the Arthritis score in data set [2] (Day 7) was 5.7±2.5 Total score. The same compound returned an Arthritis score in data set [2] (Day 9) of 6.0±2.4 Total score. In [2] (Day 11), the Arthritis score stood at 6.6±2.4 Total score. Besides, the Arthritis score in data set [2] (Day 14) is 6.9±2.5 Total score. Besides, in the data set on TNF-α [1] (2hr), the TNF-α expression stood at 312.8 pg/mL. In the data set with TNF-α [1] (24hr), the TNF-α expression came out at 3464.6 pg/mL. Further, the Arthritis score in [3] (Day 0) came to 2.5±1.0 total score. In data set [3] (Day 2), this compound registered an Arthritis score of 3.7±1.6 total score. Further, the Arthritis score in data set [3] (Day 5) is 5.0±2.4 total score. The Arthritis score in data set [3] (Day 7) is on record as 6.0±2.9 total score. Further, in data set [3] (Day 9), the Arthritis score came out at 6.3±2.9 total score. In data set [3] (Day 12), the Arthritis score is 7.2±2.7 total score. This compound also registered an Arthritis score in data set [3] (Day 14) of 7.8±3.4 total score. Further, in [4] (Day 0), the “Paw edema, LEFT” value stood at 0.10 ± 0.01 mL and the “Paw edema, RIGHT” value was 0.10 ± 0.01 mL. Moreover, in data set [4] (Day 14), the “Paw edema, LEFT” value was found to be 0.13 ± 0.04 mL and the “Paw edema, RIGHT” value came to 0.16 ± 0.05 mL. Further, in [5] (setting [12]), the “%BASO” value is listed as 0.6±0.3%, the “%EOS” value was 1.8±1.7%, the “%LUC” value worked out at 2.8±1.2% and the “%LYM” value came to 40.8±9.9%. In addition, in [5] (setting [12]), the “%MONO” value amounted to 4.2±1.5%, the “%NEUT” value came out at 49.8±11.7%, the “%RETIC” value is 0.63±1.16% and the HCT is listed as 38.2±6.0%. In data set [5] (setting [12]), the HDW amounted to 2.15 ± 0.13 g/dL, the HGB stood at 10.9 ± 1.7 g/dL, the MCH was 12.8 ± 0.8 pg and the MCV came out at 44.8 ± 2.9 fL. In data set [5] (setting [12]), the MPV turned out to be 7 ± 0.8 fL, the PLT was 440±386 10^3 cell/μL, the RDW is recorded as 23.4±3.7% and the WBC is 4.55±0.52 10^3 cell/μL. The “Hematotoxicity (in words)” value in [5] (G3 (MTX)) is listed as “적혈구와 혈소판 수치가 감소하는 독성이 나타났다”. The “Plasma TNF-α” value with TNF-α [6] came to 769.1 pg/mL. Also, in data set [7], the “Paw edema, HL, mean” value was determined as 0.16 mL and the “Paw edema, HR, mean” value came out at 0.16 mL. Further, in data set [7] (listed as MTX), the “Paw edema, HL, individual animal” value was 0.19 mL and 0.16 mL and 0.15 mL and 0.17 mL and 0.18 mL and 0.11 mL; the “Paw edema, HR, individual animal” value is 0.17 mL and 0.14 mL and 0.19 mL and 0.20 mL and 0.13 mL and 0.11 mL. Besides, in data set [8], the Bone destruction was determined as 1.3±1.6; the Cartilage damage is 1.0±1.4; the “Histopathological examination, total” value is on record as 3.6±4.5; the Synovium proliferation is given as 1.3±1.6. Besides, in data set [9], the Bone destruction is given as 1.8±1.0; the Cartilage damage is reported as 1.0±0.6; the “Histopathological examination, total” value was found to be 5.7±1.2; the Synovium proliferation was determined as 2.8±0.4.

For the compound `C[C@@H]1CCN(C(=O)CC#N)C[C@@H]1N(C)c1ncnc2[nH]ccc12` [토파시티닙], the Arthritis score in data set [3] (Day 0) was determined as 2.5±1.0 total score; in [3] (Day 2), 4.5±1.4 total score; in data set [3] (Day 5), 6.5±2.5 total score; in data set [3] (Day 7) it was 8.7±2.3 total score; in data set [3] (Day 9), 9.0±2.5 total score; in data set [3] (Day 12), 10.3±2.6 total score. The compound further returned an Arthritis score in data set [3] (Day 14) of 11.3±3.3 total score. The “Arthritis score (in words)” value in data set [3] is recorded as “관절염 지수가 개선되지 않았다”. Moreover, the TNF-α expression in the data set with TNF-α [10] (TFN 100 nM) turned out to be 535.7 pg/mL; in the data set with TNF-α [10] (TFN 200 nM) it was 538.5 pg/mL. In the data set on TNF-α [6], the “Plasma TNF-α” value is listed as 885.8 pg/mL. Further, the “Plasma TNF-α (in words)” value in the data set on TNF-α [6] is given as “혈장 TNF-α가 감소하지 않은”. The “Paw edema, HL, mean” value in [7] is given as 0.15 mL. In addition, in data set [7], the “Paw edema, HR, mean” value turned out to be 0.16 mL. Moreover, the “Paw edema, HL, individual animal” value in data set [7] (listed as TFC) was 0.13 mL and 0.12 mL and 0.18 mL and 0.14 mL and 0.17 mL. In data set [7] (listed as TFC), the “Paw edema, HR, individual animal” value is 0.19 mL and 0.18 mL and 0.13 mL and 0.14 mL and 0.12 mL. Moreover, in data set [9], the Bone destruction amounted to 2.5±0.5. In data set [9], this compound displayed a Cartilage damage of 1.8±0.4. Moreover, in data set [9], the “Histopathological examination, total” value is given as 7.3±0.8. The compound further returned a Synovium proliferation in data set [9] of 3.0±0.0.

Take `[H]/N=C(\N/C(=N/[H])Nc1ccc(Cl)cc1)NC(C)C` [프로구아닐]: the Arthritis score in data set [3] (Day 0) turned out to be 2.5±1.0 total score. For the same compound, the Arthritis score in data set [3] (Day 2) was 4.5±1.0 total score. The compound also gave an Arthritis score in [3] (Day 5) of 6.7±1.2 total score. In addition, in [3] (Day 7), the Arthritis score is 8.3±1.5 total score. For the same compound, the Arthritis score in data set [3] (Day 9) turned out to be 9.5±2.2 total score. In data set [3] (Day 12), the Arthritis score is 10.2±1.6 total score. The Arthritis score in data set [3] (Day 14) is 11.2±1.2 total score. Further, in [3], the “Arthritis score (in words)” value is recorded as “관절염 지수가 개선되지 않았다”. Further, in the data set on TNF-α [6], the “Plasma TNF-α” value came out at 904.4 pg/mL and the “Plasma TNF-α (in words)” value is listed as “혈장 TNF-α가 감소하지 않은”. In data set [7], the “Paw edema, HL, mean” value turned out to be 0.15 mL and the “Paw edema, HR, mean” value turned out to be 0.16 mL. In addition, in data set [7] (listed as PG), the “Paw edema, HL, individual animal” value was 0.13 mL and 0.14 mL and 0.16 mL and 0.15 mL and 0.17 mL and 0.12 mL; the “Paw edema, HR, individual animal” value was 0.16 mL and 0.19 mL and 0.14 mL and 0.13 mL. Also, the TNF-α expression with TNF-α [11] (PY 0.2 uM, HCQ 0.61 uM, PG 5 uM, LPS 10 ng/mL, 24 h co-treatment) was 988.1. In addition, in the data set with TNF-α [11] (drug treatment 2 h or 24 h, pyrimethamine 0.2 μM, proguanil 5 μM), the TNF-α expression inhibition result is on record as “TNF-α의 발현량을 억제하지 못했고”. In data set [9], the Bone destruction came out at 2.7±0.8; the Cartilage damage is 2.3±0.8; the “Histopathological examination, total” value amounted to 7.8±1.9; the Synovium proliferation is 2.8±0.4.
